Source: patent US20260240809A1 (EDMOND PHARMA SRL, priority 2022, published 2026)
In brackets after ≈: the same amount, converted by molar mass. Read-outs that look alike come from different tables or passages of the source.

Legend:
SH-SY5Y cells = format: cell-based; settings: human
Description: Accordingly, two time points were explored: short (90 min) and long (24 hrs). In general, longer times of exposure may sometime influence the chosen response to the test conditions/substances; it is therefore important in the starting exploratory protocols to explore an adequate time interval.
The cellular toxicity was evaluated by measuring the mitochondrial activity through the MTT assay (Marchesi N. et al., 2020).
Mitochondrial enzymatic activity was estimated by MTT [3-(4,5-dimethylthiazol-2-yl)-2,5-diphenyltetrazolium bromide] assay (Sigma-Aldrich). A cell suspension of 2×10^4 cells/mL SH-SY5Y cell line was seeded into 96-well plates.
Following each treatment of 90 minutes and 24 hours, 50 μL of MTT (concentration equal to 2.5 mg/mL) were added to each well. After incubation at 37° C. for 3 hours, the purple formazan crystals were formed. The formed crystals were solubilized in dimethylsulfoxide (DMSO; Sigma-Aldrich). Specifically, after removing the MTT from the wells, 100 μL of DMSO were added in order to lyse the cellular and mitochondrial membranes, and solubilize the formazan crystals. After 10 minutes, absorbance values were measured at 595 nm using a Synergy HT microplate reader (BioTek Instruments) and the results expressed as % with respect to control. […]

TrkA receptor = target: T1, TrkA receptor (Homo sapiens, UniProt P04629); assay: Phospho-TrkA (Tyr674/675) ELISA: activation of TrkA receptor by NGF in SH-SY5Y cells; format: cell-based; settings: for effect on basal activity in absence of NGF: FIG. 4
T1 construct: host or cells: SH-SY5Y human neuroblastoma cells
Description: The experiment is based on a commercially available ELISA assay evaluating the amount of phosphorylated TrkA (Pandre M K. et al., 2018) and used as indicated in the producer's protocol. The cell culture conditions were described in Marchesi N. et al., 2020.
All the experiments were performed under a laminar flow hood.
The phospho-TrkA (Tyr674/675) protein levels in SH-SY5Y cells were estimated with a specific ELISA kit (Cell Signaling, #7212C.), according to the manufacturer's instructions.
PathScan® Phospho-TrkA (Tyr674/675) Sandwich ELISA Kit is a solid phase sandwich enzyme-linked immunosorbent assay that detects […] levels of Phospho-TrkA (Tyr674/675) protein. A TrkA Mouse mAb #4614 has been coated onto the microwells. After incubation with cell lysates, both phospho- and nonphospho-TrkA proteins are captured by the coated antibody. Following extensive washing to remove any unbound antibody/reagent, Phospho-TrkA (Tyr674/675) Antibody #4610 is added to detect phospho-TrkA protein. Anti-rabbit IgG, HRP-linked Antibody #7074 is then used to recognize the bound detection antibody. HRP substrate, TMB (3,3′,5,5′-tetramethylbenzidine), is added to develop color. The magnitude of optical density is proportional to the quantity of Phospho-TrkA (Tyr674/675) protein.
The color development was stopped and the intensity of the color measured at 450 nm using a Synergy HT microplate reader (BioTek Instruments). The antibodies used in the kit were custom formulations specific for the kit.

[1] = Solubility of the test substances; format: physicochemical
[2] = 1 mM, 24 hrs, FIG. 9, Dunnett's test
[3] = 10 mM, 90 min, FIG. 4, Tukey's test
[4] = 10 mM, 24 hrs, FIG. 8, Dunnett's test
[5] = 10 mM, 24 hrs, FIG. 9, Dunnett's test
[6] = SH-SY5Y, read-out: inhibition of TrkA activation by NGF, 10 mM, 24 hrs exposure, FIG. 8
[7] = 24 hrs exposure, no NGF, FIG. 8
[8] = SH-SY5Y, read-out: inhibition of NGF (reduction of the response to NGF)
[9] = SH-SY5Y, read-out: inhibition of TrkA activation by NGF

T1 sequence (P04629 33-796): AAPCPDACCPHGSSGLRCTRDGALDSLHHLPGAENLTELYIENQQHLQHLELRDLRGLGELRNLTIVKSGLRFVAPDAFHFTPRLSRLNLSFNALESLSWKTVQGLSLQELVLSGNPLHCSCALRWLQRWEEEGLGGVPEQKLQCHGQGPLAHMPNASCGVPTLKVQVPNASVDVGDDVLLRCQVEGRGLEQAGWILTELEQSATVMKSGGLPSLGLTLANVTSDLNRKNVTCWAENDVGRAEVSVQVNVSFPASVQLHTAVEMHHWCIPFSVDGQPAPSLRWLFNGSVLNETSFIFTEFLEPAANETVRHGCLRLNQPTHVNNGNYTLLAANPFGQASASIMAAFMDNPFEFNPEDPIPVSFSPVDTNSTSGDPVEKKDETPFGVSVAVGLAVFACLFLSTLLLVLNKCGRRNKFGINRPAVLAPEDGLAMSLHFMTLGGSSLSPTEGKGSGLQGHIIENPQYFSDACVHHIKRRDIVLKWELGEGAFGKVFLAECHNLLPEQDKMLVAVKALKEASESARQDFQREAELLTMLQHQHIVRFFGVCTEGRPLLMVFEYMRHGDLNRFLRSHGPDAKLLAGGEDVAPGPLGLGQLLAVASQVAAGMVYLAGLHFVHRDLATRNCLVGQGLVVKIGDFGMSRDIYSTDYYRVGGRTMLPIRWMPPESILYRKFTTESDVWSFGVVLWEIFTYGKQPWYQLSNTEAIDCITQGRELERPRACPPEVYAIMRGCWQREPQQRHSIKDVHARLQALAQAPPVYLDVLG

O=C(O)CSCC(=O)NC1CCSC1=O (racemic) [erdosteine, (2-[N-3-(2-oxotetrahydrothienyl)]acetamido)-thioglycolic acid, reference compound]
decrease in mitochondrial activity (SH-SY5Y cells; 90 min, 20 mM): 16.3% | Statistically significant (NGF vs. substance + NGF) (TrkA receptor; 0.1 mM, 24 h, FIG. 7, Tukey's test): No | inhibitory action on TrkA activation by NGF (TrkA receptor; 0.1 mM, 24 hrs exposure, FIG. 7): ineffective | Statistically significant (NGF vs. substance + NGF) (TrkA receptor; 0.5 mM, 24 h, FIG. 7, Tukey's test): Yes | inhibitory action on TrkA activation by NGF (TrkA receptor; 0.5 mM, 24 hrs exposure, FIG. 7): a trend which is appreciable but not strongly statistically significant | inhibition of TrkA activation by NGF at plateau (TrkA receptor; 1 mM and higher (up to 10 mM), 24 hrs exposure, FIG. 7): around 40% | Statistically significant (NGF vs. substance + NGF) (TrkA receptor; 1 mM, 24 h, FIG. 7, Tukey's test): Yes | inhibitory action on TrkA activation by NGF (TrkA receptor; 1.0 mM, 24 hrs exposure, FIG. 7): significant inhibitory action | Statistically significant (NGF vs. substance + NGF) (TrkA receptor; [2]): No | Statistically significant (NGF vs. substance + NGF) (TrkA receptor; 5 mM, 24 h, FIG. 7, Tukey's test): Yes | Statistically significant (NGF vs. substance + NGF) (TrkA receptor; 10 mM, 90', FIG. 6, Tukey's test): Yes | Statistically significant (NGF vs. substance + NGF) (TrkA receptor; [3]): No | Statistically significant (NGF vs. substance + NGF) (TrkA receptor; 10 mM, 24 h, FIG. 6, Tukey's test): Yes | Statistically significant (NGF vs. substance + NGF) (TrkA receptor; 10 mM, 24 h, FIG. 7, Tukey's test): Yes | Statistically significant (NGF vs. substance + NGF) (TrkA receptor; [4]): Yes | Statistically significant (NGF vs. substance + NGF) (TrkA receptor; [5]): Yes | effect on basal activity in absence of NGF (TrkA receptor; 90 min, no NGF): do not modify | IC50 (TrkA receptor; 24 hrs exposure, FIG. 9): 500 to 1000 µM | inhibition at 10000 µM (TrkA receptor; SH-SY5Y, 10 mM, 24 hours exposure, FIG. 6, read-out: inhibition of TrkA phosphorylation): 42.2% | inhibition at 10000 µM (TrkA receptor; SH-SY5Y, read-out: inhibition of NGF (reduction of the response to NGF), 10 mM, 90 min pre-exposure, NGF 100 ng/ml, FIG. 4): 8.2% | inhibition at 10000 µM (TrkA receptor; SH-SY5Y, read-out: inhibition of TrkA activation by NGF, 10 mM, 90 min exposure, FIG. 6): 13.9% | inhibition at 10000 µM (TrkA receptor; [6]): 36% | solubility at 20 min ([1]; 37 °C, aqueous buffer, MEM, warming 20 minutes at 37°): 11 mg/mL (≈ 44.1 mM)

O=C(O)CSCC(=O)N[C@@H]1CCSC1=O [Erdo R]
inhibition of TrkA activation by NGF (TrkA receptor; 10 mM, 24 hrs exposure, FIG. 8): 30% | Statistically significant (NGF vs. substance + NGF) (TrkA receptor; [4]): Yes | effect on the basal activity (TrkA receptor; [7]): no effect

O=C(O)CSCC(=O)N[C@H]1CCSC1=O [Erdo S]
Statistically significant (NGF vs. substance + NGF) (TrkA receptor; 1 nM, 24 hrs, FIG. 9, Dunnett's test): No | Statistically significant (NGF vs. substance + NGF) (TrkA receptor; 100 nM, 24 hrs, FIG. 9, Dunnett's test): Yes | effect on TrkA activation by NGF (TrkA receptor; 100 nM, 24 hrs, no change up to 10 mM, FIG. 9): already maximal | Statistically significant (NGF vs. substance + NGF) (TrkA receptor; 1 uM, 24 hrs, FIG. 9, Dunnett's test): Yes | Statistically significant (NGF vs. substance + NGF) (TrkA receptor; 0.01 mM, 24 hrs, FIG. 9, Dunnett's test): Yes | Statistically significant (NGF vs. substance + NGF) (TrkA receptor; 0.05 mM, 24 hrs, FIG. 9, Dunnett's test): Yes | Statistically significant (NGF vs. substance + NGF) (TrkA receptor; 0.1 mM, 24 hrs, FIG. 9, Dunnett's test): Yes | Statistically significant (NGF vs. substance + NGF) (TrkA receptor; [2]): No | Statistically significant (NGF vs. substance + NGF) (TrkA receptor; 5 mM, 24 hrs, FIG. 9, Dunnett's test): Yes | Statistically significant (NGF vs. substance + NGF) (TrkA receptor; [4]): Yes | Statistically significant (NGF vs. substance + NGF) (TrkA receptor; [5]): Yes | IC50 (TrkA receptor; 24 hrs exposure, FIG. 9): 0.001 to 0.1 µM | effect on the basal activity (TrkA receptor; [7]): no effect | inhibition at 10000 µM (TrkA receptor; [6]): 41%

O=C(O)CSCC(=O)NC(CCS)C(=O)O (stereo not shown) [Met-1]
decrease of mitochondrial activity (SH-SY5Y cells; 24 h, 10 mM): 17.5% | Statistically significant (NGF vs. substance + NGF) (TrkA receptor; [3]): Yes | Statistically significant (NGF vs. substance + NGF) (TrkA receptor; 20 mM, 90 min, FIG. 3, Tukey's test): Yes | Statistically significant (NGF vs. substance + NGF) (TrkA receptor; 20 mM, 90 min, FIG. 4, Tukey's test): Yes | Statistically significant (NGF vs. substance + NGF) (TrkA receptor; 40 mM, 90 min, FIG. 3, Tukey's test): Yes | effect on basal pTrkA levels (substance alone) (TrkA receptor; 20 and 40 mM, 90 min, no NGF, FIG. 3): did not alter | effect on basal activity in absence of NGF (TrkA receptor; 90 min, no NGF): do not modify | inhibition at 10000 µM (TrkA receptor; [8]): 23% | inhibition at 20000 µM (TrkA receptor; [8]): 24.5% | inhibition at 20000 µM (TrkA receptor; [9]): 34% | inhibition at 40000 µM (TrkA receptor; [9]): 52% | solubility ([1]; water): 164 mg/mL (≈ 613 mM)
